Measurements: patent US12521361B2, “Use of sodium octanoate in preparation of medicine for improving the efficacy of cardiopulmonary resuscitation and post-resuscitation multiple organ dysfunction” (ZHEJIANG UNIVERSITY, priority 2021, dated 2026)
Marks after values point to notes of the source that are not given here.

What was measured:
Type in all cases: in vivo, domestic healthy male white pigs
[1] = system: model of cardiac arrest and resuscitation; test: Outcomes of cardiopulmonary resuscitation and cardiac/cerebral perfusion in pig model of cardiac arrest and resuscitation
Description: (§1) • 1. All animals started fasting without water deprivation 12 h before experiment. • 2. The experimental animals were firstly intramuscularly injected with midazolam by 0.4-0.5 mg/kg for induced anesthesia, connected to an electrocardiogram monitor, then injected with propofol by 2 mg/kg through ear vein for general anesthesia, and afterwards maintained in an anesthetic state through infusing 4 mg/kg/h via the vein. • 3. Endotracheal intubation, monitoring of partial pressure of end-tidal carbon dioxide (ETCO2), and mechanical ventilation were rapidly carried out, wherein ventilation parameters were an intermittent positive pressure ventilation (IPPV) mode, with oxygen concentration of 21%, tidal volume of 10 ml/kg, and positive end-expiratory pressure of 0 mmHg, and ETCO2 was maintained in a normal physiological range of 35-40 mmHg by adjusting respiratory frequency. • 4. Right femoral artery and vein were exposed by operation, and Swan-Ganz catheters were respectively disposed into thoracic aorta and right atrium, wherein the former was used to monitor aortic blood pressure and collect an arterial blood sample, and the catheter main chamber of the latter was used to monitor right atrial pressure and body temperature and collect a venous blood sample, a catheter side chamber was used to infuse a therapeutic medicine, and calculate the level of coronary perfusion pressure (CPP) according to the difference between decompression diastolic aortic and time-coincident right atrial pressures. • 5. Right external jugular vein was exposed by operation, and an inducing electrode for ventricular fibrillation was disposed into right ventricle to induce ventricular fibrillation later. • 6. Right internal jugular vein and left femoral artery were exposed by operation, a central venous catheter and a thermodilution arterial catheter were respectively disposed therein, and the two were connected to a pulse indication continuous cardiac output (PiCCO) monitor, for monitoring the changes of cardiac function including stroke volume (SV) and global ejection fraction (GEF). • 7. Right carotid artery was exposed by operation, superficial fascia was stripped off, a carotid blood flow sensor was arranged, and then a blood flow velocity ultrasonic recorder was connected to monitor the change of carotid blood flow (CBF) in real time. • 8. The animals' forehead hair was shaved off, to expose forehead skin. The forehead skin was cleaned with alcohol, and attached with a cerebral oxygen monitoring probe, and then a cerebral oxygen monitor was attached to monitor the change of regional cerebral oxygen saturation (rSO2) in real time. • 9. The body temperature of the animals was maintained at a normal temperature of about 38° C. all the time by using a temperature control blanket.
• 1. Setting model conditions: 8 min of cardiac arrest and 8 min of cardiopulmonary resuscitation. • 2. Cardiac arrest method: inducing ventricular fibrillation by right ventricular electrode discharge, and observing for 8 min without intervention. • 3. Cardiopulmonary resuscitation method: • 1) continuous manual external chest compression; • 2) mechanical ventilation was carried out by using a respirator (parameters were IPPV (intermittent positive pressure ventilation) mode, with oxygen concentration of 100%, tidal volume of 7 ml/kg, respiratory frequency of 10 times/min, and positive end-expiratory pressure of 0 mmHg); • 3) adrenalin: when cardiopulmonary resuscitation was performed for 2 min, adrenalin was given by 20 μg/kg, thereafter, the same was repeated every 4 min; • 4) defibrillation: when cardiopulmonary resuscitation was performed for 8 min, 150 J electrical defibrillation was performed once; and • 5) if spontaneous circulation was not restored, cardiopulmonary resuscitation was immediately restarted for 2 min, followed by one time of defibrillation. This cycle was repeated for 5 times or less until the resuscitation was successful or declared to be failed. • 4. […]

[2] = system: model of cardiac arrest and resuscitation; test: Cardiac function (PiCCO) and myocardial injury biomarker after resuscitation; conditions: 28.5 mg/kg i.v., P<0.05, FIG. 2
Description: as §1, with “Right carotid artery was exposed by operation, superficial fascia was stripped off, a carotid blood flow sensor was arranged, and then a blood flow velocity ultrasonic recorder was connected to monitor the change of carotid blood flow (CBF) in real time. • 8. The animals' forehead hair was shaved off, to expose forehead skin. The forehead skin was cleaned with alcohol, and attached with a cerebral oxygen monitoring probe, and then a cerebral oxygen monitor was attached to monitor the change of regional cerebral oxygen saturation (rSO2) in real time. • 9. The body temperature of the animals was maintained at a normal temperature of about 38° C. all the time by using a temperature control blanket.” left out

[3] = system: model of cardiac arrest and resuscitation; test: Cerebral function (NDS) and brain injury biomarkers after resuscitation; conditions: 28.5 mg/kg i.v., P<0.05, FIG. 3
Description: (§2) • 1. Setting model conditions: 8 min of cardiac arrest and 8 min of cardiopulmonary resuscitation. • 2. Cardiac arrest method: inducing ventricular fibrillation by right ventricular electrode discharge, and observing for 8 min without intervention. • 3. […]
(§3) • 1. Changes in physiological indexes such as heart rate, blood pressure, ETCO2, CBF, rSO2, and body temperature were dynamically monitored throughout the experiment, and the survival outcomes of the animals at 4 h and 24 h were recorded. • 2. During cardiopulmonary resuscitation, the changes in CPP, ETCO2, CBF, and rSO2 were continuously monitored dynamically, and the duration of cardiopulmonary resuscitation, number of defibrillation, dosage of adrenaline, and rate of return of spontaneous circulation of various groups of animals were recorded. • 3. Before modeling and at 1 h, 2 h, and 4 h after resuscitation, the changes in cardiac function such as SV and GEF were periodically detected by using a PiCCO monitor. • 4. […] The blood plasma was frozen and stored in a −80° C. deep hypothermia freezer, and serum levels of myocardial injury biomarker cardiac troponin I (cTnI), brain injury biomarker neuron specific enolase (NSE) and S100B protein (S100B), renal and intestinal injury biomarker creatinine (Cr) and intestinal fatty acid-binding protein (iFABP) were detected by using an enzyme-linked immunosorbent assay at selected time. • 5. […]

[4] = system: model of cardiac arrest and resuscitation; test: Renal and intestinal injury biomarkers after resuscitation; conditions: 28.5 mg/kg i.v., P<0.05, FIG. 4
Description: as §2, §3

[5] = system: model of cardiac arrest and resuscitation; test: Cell apoptosis in heart, brain, kidney and intestine by TUNEL after resuscitation; conditions: at 24 h after resuscitation, 28.5 mg/kg i.v., P<0.05, FIG. 5
Description: as §2, §3

[6] = during cardiopulmonary resuscitation, almost all time points, 28.5 mg/kg i.v., P<0.05, FIG. 1
[7] = in words, 28.5 mg/kg i.v., P<0.05
[8] = pigs, sodium octanoate 28.5 mg/kg intravenously at start of CPR, n=8, P<0.05 vs CPR group
[9] = pigs, sodium octanoate 28.5 mg/kg intravenously at start of CPR, P<0.05 vs CPR group
[10] = starting 1 h after resuscitation

For `CCCCCCCC(=O)[O-].[Na+]` [SO, sodium octanoate], the “CBF (carotid blood flow) compared with the CPR group” value [1, 6] was “obviously higher”, the “CPP (coronary perfusion pressure) compared with the CPR group” value [1, 6] was “obviously higher” and the “ETCO2 (partial pressure of end-tidal carbon dioxide) compared with the CPR group” value [1, 6] was “obviously higher”. The “rSO2 (regional cerebral oxygen saturation) compared with the CPR group” value [1, 6] was “obviously higher”, the “Dosage of adrenaline compared with the CPR group” value [1, 7] was “decreased” and the “Duration of cardiopulmonary resuscitation compared with the CPR group” value [1, 7] was “shortened”. The “Number of defibrillation compared with the CPR group” value [1, 7] was “reduced”, the “Rate of return of spontaneous circulation compared with the CPR group” value [1, 7] was “increased” and the “Survival rates at 4 h and 24 h post-resuscitation compared with the CPR group” value [1, 7] was “increased”. The “Duration of cardiopulmonary resuscitation” value ([1]; pigs, 8 min cardiac arrest, sodium octanoate 28.5 mg/kg intravenously at start of CPR, n=8, P<0.05 vs CPR group) was 8.00 ± 0.00 min, the Dosage of adrenaline [1, 8] was 1.59 ± 0.08 mg and the Number of defibrillation [1, 8] was 1.00 ± 0.00 n. The 4-h survival [1, 9] was 8/8^#, the 24-h survival [1, 9] was 8/8^# and the “Return of spontaneous circulation” value [1, 9] was 8/8^#. The “GEF (global ejection fraction) compared with the CPR group” value [2, 10] was “obviously higher”, the “SV (stroke volume) compared with the CPR group” value [2, 10] was “obviously higher” and the “Serum level of cTnI (cardiac troponin I) compared with the CPR group” value ([2]; starting 4 h after resuscitation) was “markedly lower”. The “Serum level of S100B compared with the CPR group” value ([3]; at 1 h, 2 h, and 24 h after resuscitation) was “remarkably reduced”, the “Serum level of NSE (neuron specific enolase) compared with the CPR group” value ([3]; at 4 h and 24 h after resuscitation) was “remarkably reduced” and the “NDS (neurological deficit score) compared with the CPR group” value ([3]; at 24 h after resuscitation) was “remarkably lower”. For the same compound, the “Serum levels of Cr (creatinine) compared with the CPR group” value ([4]; at 2 h and 24 h after resuscitation) was “remarkably reduced”, the “Serum level of iFABP (intestinal fatty acid-binding protein) compared with the CPR group” value ([4]; at 24 h after resuscitation) was “remarkably reduced” and the “Cell apoptosis of various organs (heart, brain, kidney, intestine; TUNEL) compared with the CPR group” value [5] was “remarkably reduced”.
